Test results published in paper PMC8637440, “Structural Modifications Yield Novel Insights Into the Intriguing Pharmacodynamic Potential of Anti-inflammatory Nitro-Fatty Acids” (Frontiers in Pharmacology, 2021).
Structures can show the parent of a compound that is named as a salt. Residues, ends and D or L forms follow the SMILES beside them. *: point of attachment. Cbz = O=C(OCc1ccccc1)*

Experiments:
[1] = tested on: NF-κB p65; experiment: NF-κB p65 transcription factor ELISA in TNFα-stimulated HCT-116 cells; format: cell-based; conditions: Homo sapiens, HCT-116, 4 h, read-out: inhibition of NF-κB p65 signaling
Method: (§1) The Nrf-2 and NF-κB transcription factors in the nuclear extracts were detected using an Nrf-2 Transcription Assay Kit (Cayman Chemical, # 600590) and NF-κB (p65 and p50) Transcription Factor Assay Kit (Cayman Chemical, # 10007889 and # 10006912). Prior to assay performance, the nuclear extracts were generated using a Nuclear Extraction Kit (Cayman Chemical, # 10009277). The assay was performed according to the manufacturer’s instructions. For all kits, the nuclear extracts were incubated overnight at 4°C. Development was carried out for 15–20 min or until the wells turned medium to dark blue. Five minutes after the stop solution had been added, the absorbance was read at 450 nm using a plate reader.
The proteasome inhibitor MG132 ([Lee and Goldberg, 1998]) was used as a positive control, as proteasomal inhibition leads to stabilization of I-κB and thus inhibits the activation of the NF-κB signaling pathway. We used a MG132 incubation period of 4 h as longer incubations have been described to activate NF-κB signaling ([Lee et al., 2013]).
FIGURE 1 Effects of NFA on the NF-κB p65 and p50 signaling pathway in colorectal cancer cells. […] Incubation for 4 h with the proteasome inhibitor MG132 (1 µM) served as the positive control. […] Values are normalized to protein concentration and unstimulated vehicle control. Data are represented as mean ± SD of (A) n = 3 (DMSO, 16.9.9, 9NOA control of right panel, 18.4.4, 18.6.7, and 18.9.10), n = 4 (all other derivatives) and (B) n = 5. Statistical significance was calculated by one-way analysis of variance (ANOVA) with Bonferroni post-test. *p ≤ 0.03, **p ≤ 0.0021, ***p ≤ 0.0002, ****p ≤ 0.0001 were considered significant versus TNF-α treatment.

[2] = tested on: Nrf-2; experiment: Nrf-2 induction in HCT-116 cells (Western blot and ELISA); format: cell-based, human; conditions: 10 µM, 4 h, HCT-116, Western blot and ELISA
Method: as §1
HCT-116 and A549 cells were washed with 1× PBS, and cell extracts were generated using a Nuclear Extraction Kit (Cayman Chemical, #10009277) according to the manufacturer’s instructions, whereas whole-cell lysates were obtained using SDS lysis buffer (55.5 mM Tris-HCl pH 6.8, 2.2% SDS, 9% glycerol supplemented with protease (cOmplete® Protease Inhibitor Cocktail, Roche, Mannheim, Germany) and phosphatase (PhosStop® Easy Pack, Roche, Mannheim, Germany) inhibitors. Protein concentrations from the nuclear and cytosolic fractions were determined with a bicinchoninic acid (BCA) protein assay kit (Pierce™, Rockford, Illinois, United States). Cytoplasmic and nuclear extracts (100 µg each) and 30 µg whole-cell lysates were diluted in 5× Laemmli loading dye and denatured for 10 min at 95°C, loaded on a 10% SDS polyacrylamide gel, and separated by gel electrophoresis for 15 min at 80 V followed by 60 min at 120 V. The separated proteins were blotted onto a nitrocellulose membrane (Hybond-C Extra, Amersham Biosciences Ltd., UK) using the Mini Trans-Blot® module (Bio-Rad, Hercules, California, United States) for 90 min at 90 V. The membrane was blocked with Odyssey blocking buffer (Li-Cor Biosciences, Bad Homburg, Germany) or 5% milk powder in TBS-T (Tris Buffered Saline with 0.1% Tween) for 1 h at room temperature (RT). The membranes were incubated with the primary antibodies overnight at 4°C, and then with the secondary antibodies for 1 h at RT. The primary antibodies were diluted 1:1,000 and the secondary antibodies were diluted 1:10,000 to 1:20,000. […]
FIGURE 2 Effects of NFA on Nrf-2 expression in colorectal cancer cells. HCT-116 cells were treated with 10 µM NFA and tBHQ and/or MMF for 4 h, and Nrf-2 levels were analyzed by western blotting and ELISA. […] (B) Nrf-2 expression levels were evaluated with an ELISA after incubation with NFA with different carbon chain lengths and Michael acceptor positions. […]

[3] = tested on: HCT-116 cells; experiment: WST-1 cell viability assay, HCT-116; format: cell-based, human; conditions: WST-1 cell viability, 24 h, n.i. = no inhibition observed
Method: (§2) Cell viability was analyzed with the WST-1 assay based on the cleavage of the stable tetrazolium salt WST-1 by the mitochondrial reductase system. Cells were seeded in the appropriate densities in a clear 96-well plate and settled overnight at 37°C in 5% CO2. The next day, the cells were treated with NFA or the substances of interest (≤0.1% dimethyl sulfoxide [DMSO]) and incubated for 24 or 48 h at 37°C in 5% CO2. Cell viability was analyzed by adding 10 µl WST-1 solution (Roche, Basel, Switzerland) and subsequently incubating the cells at 37°C for another 30–40 min. Absorbance was measured at 450 nm with a control wavelength at 620 nm using a plate reader.
(§3) Besides targeting the NF-κB pathway, the anti-tumorigenic effects of NFA can be observed by a reduction of colorectal cancer cell viability. […] Again, the cytotoxic effects of NFA were determined in HCT-116 and HT-29 colorectal cancer cells in the present study. […] HCT-116 cells were treated with increasing concentrations of NFA differing in chain length and Michael acceptor position for 24 h, and cell viability was determined using the WST-1 assay. Due to their prolonged cell division rate and their lack of sensitivity towards NFA ([Kühn et al., 2018]), HT-29 cells were treated for 48 h to gain improved NFA activity.

[4] = tested on: HT-29 cells; experiment: WST-1 cell viability assay, HT-29; format: cell-based, human; conditions: n.i. = no inhibition observed
Method: as §2, §3

[5] = target: T1, 5-LO (Homo sapiens, UniProt P09917); experiment: 5-LO product formation (LTB4, 5-HETE) in intact PMNL, A23187 + 20 µM AA; format: cell-based; conditions: 10 µM, A23187 2.5 µM + 20 µM AA (data not shown)
T1 construct: endogenous in cells; host or cells: human PMNL from buffy coats
T1 sequence (P09917 1-674): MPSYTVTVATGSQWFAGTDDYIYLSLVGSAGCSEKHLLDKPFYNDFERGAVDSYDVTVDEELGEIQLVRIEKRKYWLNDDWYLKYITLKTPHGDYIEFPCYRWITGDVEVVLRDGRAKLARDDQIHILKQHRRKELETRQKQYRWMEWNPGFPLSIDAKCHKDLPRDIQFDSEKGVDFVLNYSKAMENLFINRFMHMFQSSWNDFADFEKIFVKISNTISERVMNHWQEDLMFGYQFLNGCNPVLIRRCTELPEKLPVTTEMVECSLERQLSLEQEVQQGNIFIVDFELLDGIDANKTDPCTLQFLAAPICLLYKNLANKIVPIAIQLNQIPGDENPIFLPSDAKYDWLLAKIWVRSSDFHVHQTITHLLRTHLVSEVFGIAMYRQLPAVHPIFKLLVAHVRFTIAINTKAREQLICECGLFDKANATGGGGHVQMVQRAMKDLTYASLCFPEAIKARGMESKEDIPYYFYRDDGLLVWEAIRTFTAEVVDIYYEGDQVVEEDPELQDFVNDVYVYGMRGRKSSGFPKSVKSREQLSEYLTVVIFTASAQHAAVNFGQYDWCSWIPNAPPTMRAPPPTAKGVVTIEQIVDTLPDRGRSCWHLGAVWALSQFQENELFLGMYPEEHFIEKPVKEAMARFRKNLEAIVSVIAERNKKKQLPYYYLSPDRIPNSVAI
Method: Buffy coats from different donors of different blood types were commercially obtained from DRK Blutspendedienst Baden-Württemberg Institute Frankfurt. Donors have given their written consent. […] Following separation, the supernatant was transferred very gently to new 50-ml tubes containing lymphocyte separation medium (LSM) and centrifuged for 10 min at 800 ×g at RT with the centrifuge brake turned off. Afterwards, the supernatant was decanted carefully to discard the platelets and monocytes. The PMNL were washed with 1× PBS before the residual erythrocytes were lysed in two cycles: the cell pellet was resuspended with 10 ml H2O and vortexed for 45 s, and lysis was stopped with 40 ml 1 × PBS. After 10-min centrifugation at 200 ×g at RT, the cycle was repeated once. The supernatant was aspirated, the cell pellet resuspended in 5 ml PBS/glucose and initially separated PMNL preparations with different blood types were finally pooled to gain a sufficient number of cells. […] The enzyme was diluted in PBS/EDTA/ATP, transferred into 5-ml glass tubes, and stored on ice. […] The reaction was stopped by placing the glass tubes on ice. The supernatants were transferred to 1.5 ml reaction tubes and stored at −80°C before LC-MS (liquid chromatography and mass spectrometry) analysis of LTB4 and HETEs as described in 2.6 at the Institute of Pharmacology, Goethe University, University Hospital, Germany. The lipid mediators LTB4, hydroxyeicosatetraenoic acids, 5(S)-HETE, 12(S)-HETE, 15(S)-HETE and 20-HETE were analyzed using liquid chromatography tandem-mass spectroscopy (LC-MS/MS). The LC-MS/MS system consisted of a 5500 QTrap mass spectrometer (Sciex, Darmstadt, Germany), operating in negative ESI mode, an Agilent 1200 HPLC system (Agilent, Waldbronn, Germany) and an HTC Pal autosampler (Chromtech, Idstein, Germany). Sample extraction of LTB4 and HETEs were performed using liquid-liquid extraction: 200 µl of the sample were gently mixed with 20 µl of methanol and 20 µl of internal standard solution and extracted twice with 600 µl ethyl acetate. […] Working solutions of all analytes were prepared in methanol containing 0.1% BHT. The calibration standards were prepared by further dilution of the working standards. […] The residues were reconstituted in 50 µl of methanol:water:BHT (50:50:10^−4, v/v/v) prior to injection into the LC-MS/MS system. Chromatographic separation was achieved using a Gemini NX C18 column (150 mm × 2 mm ID, 5 µm, Phenomenex, Aschaffenburg, Germany) with a precolumn of the same material. A linear gradient was employed at a flow rate of 0.5 ml/min and a total run time of 17.5 min. Mobile phases were A water:ammonia (100:0.05, v/v) and B acetonitrile:ammonia (100:0.05, v/v). […] All data were acquired using Analyst software v1.6.2 and quantitation was performed by MultiQuant software v3.0 (both Sciex, Darmstadt, Germany) using the internal standard method (isotope-dilution mass spectrometry). Calibration curves were calculated by linear regression with 1/x.

CC(C)C[C@@H](C=O)NC(=O)[C@H](CC(C)C)NC(=O)[C@H](CC(C)C)NC(=O)OCc1ccccc1 [MG132, reference compound] (Cbz-Leu-Leu-Leu-aldehyde)
inhibition at 1 µM [1]: ~90%

COC(=O)/C=C/C(=O)O [MMF, monomethyl fumarate]
induction of Nrf-2 (protein levels / signaling) [2]: increase

CC1=CC(=O)C(C(C)C)=CC1=O [TQ, thymoquinone, reference compound]
IC50 ([3]; Homo sapiens, HCT-116): 4.2 ± 1.2 µM
HCT-116 (24 h) IC50 [3]: suppressed HCT-116 and HT-29 cell viability effectively
IC50 ([4]; Homo sapiens, HT-29, 48 h): 10.3 ± 1.1 µM
HT-29 (48 h) IC50 [4]: suppressed HCT-116 and HT-29 cell viability effectively

COc1ccc2c(c1)CC[C@@H]1[C@@H]2CC[C@]2(C)[C@@H](NCCCCCCN3C(=O)C=CC3=O)CC[C@@H]12 [U73122, reference compound]
inhibition of 5-LO product formation in PMNL [5]: > 90%

CC(C)(C)c1cc(O)ccc1O [tBHQ, tert-butylhydroquinone]
induction of Nrf-2 (protein levels / signaling) [2]: increase
